Values after ≈ are worked out from the molar mass of the structure shown. Counter-ions that a name gives are not always drawn. Like-named read-outs stand apart in the source and are kept apart here.
Tests used:
Citrobacter SS 05 = type: cell-based; conditions: Brain Heart Infusion, estolate and RV11-RV15 previously hydrolized, unit assumed
[1] = Mucolytic activity: obstruction of the bronchial tract after SO2 inhalation; type: in vivo, Sprague Dawley male rats; conditions: SO2, 15 days
[2] = test system: Strept. haemolyticus SS 18; type: cell-based; conditions: Brain Heart Infusion, estolate and RV11-RV15 previously hydrolized, unit assumed
E. aerogenes SS 011 = type: cell-based; conditions: Brain Heart Infusion, estolate and RV11-RV15 previously hydrolized, unit assumed
E. coli SS 05 = type: cell-based; conditions: Brain Heart Infusion, estolate and RV11-RV15 previously hydrolized, unit assumed
S. infantis SS 08 = type: cell-based; conditions: Brain Heart Infusion, estolate and RV11-RV15 previously hydrolized, unit assumed
Sr. marcescens SS 03 = type: cell-based; conditions: Brain Heart Infusion, estolate and RV11-RV15 previously hydrolized, unit assumed
B. subtilis SS 127 = type: cell-based; conditions: Brain Heart Infusion, estolate and RV11-RV15 previously hydrolized, unit assumed
Pr. vulgaris SS 10 = type: cell-based; conditions: Brain Heart Infusion, estolate and RV11-RV15 previously hydrolized, unit assumed
Br. melitensis SS 19 = type: cell-based; conditions: unit assumed
H. influentiae SS 02 = type: cell-based; conditions: Brain Heart Infusion, estolate and RV11-RV15 previously hydrolized, unit assumed
Strept. faecalis SS 19 = type: cell-based; conditions: Brain Heart Infusion, estolate and RV11-RV15 previously hydrolized, unit assumed
Ps. aeruginosa SS 10 = type: cell-based; conditions: Brain Heart Infusion, estolate and RV11-RV15 previously hydrolized, unit assumed
Kl. aerogenes SS 71 = type: cell-based; conditions: Brain Heart Infusion, estolate and RV11-RV15 previously hydrolized, unit assumed
H. pertussis SS 03 = type: cell-based; conditions: Brain Heart Infusion, estolate and RV11-RV15 previously hydrolized, unit assumed
Br. abortus SS 7 = type: cell-based; conditions: Brain Heart Infusion, estolate and RV11-RV15 previously hydrolized, unit assumed
D. pneumoniae SS 23 [3] = type: cell-based; conditions: Brain Heart Infusion, estolate and RV11-RV15 previously hydrolized, unit assumed
Staph. aureus SS 07 [4] = type: cell-based; conditions: Brain Heart Infusion, estolate and RV11-RV15 previously hydrolized, unit assumed
C. diphtheriae SS 19 = type: cell-based; conditions: Brain Heart Infusion, estolate and RV11-RV15 previously hydrolized, unit assumed
N. meningitidis SS 04 = type: cell-based; conditions: Brain Heart Infusion, estolate and RV11-RV15 previously hydrolized, unit assumed
B. subtilis ATCC 6633 = type: cell-based; conditions: Brain Heart Infusion, estolate and RV11-RV15 previously hydrolized, unit assumed
[5] = test system: Strept. haemolyticus SS 17; type: cell-based; conditions: Brain Heart Infusion, estolate and RV11-RV15 previously hydrolized, unit assumed
S. lutea ATCC 9341 = type: cell-based; conditions: Brain Heart Infusion, estolate and RV11-RV15 previously hydrolized, unit assumed
Staph. albus SS 04 = type: cell-based; conditions: Brain Heart Infusion, estolate and RV11-RV15 previously hydrolized, unit assumed
Staph. aureus SS 09 = type: cell-based; conditions: Brain Heart Infusion, estolate and RV11-RV15 previously hydrolized, unit assumed
B. anthranis SS 09 = type: cell-based; conditions: B. anthranis SS 09 (14 bis); Brain Heart Infusion; estolate and RV11-RV15 previously hydrolized; unit assumed
Cl. tetani SS 17 = type: cell-based; conditions: Brain Heart Infusion, estolate and RV11-RV15 previously hydrolized, unit assumed
N. gonorreae SS 27 = type: cell-based; conditions: Brain Heart Infusion, estolate and RV11-RV15 previously hydrolized, unit assumed
D. pneumoniae SS 23 [6] = assay: Experimental infection induced by D. pneumoniae SS 23; type: in vivo, Swiss white mice
Procedure: (§1) Swiss white mice of 20 g body weight were used, infected by parenteral administration of lethal amounts of pathogenic […] of Staph. aureus SS 07 and D. pneumoniae SS 23.
(§2) The antibiotics were administered at the time of injecting the infecting germ and 6 and 24 hours later. On the basis of the survival after 7 days, the ED50 values were determined, as reported in the following table II and III, wherein the reliability limits are indicated in brackets.

E. cloacae SS 07 = type: cell-based; conditions: Brain Heart Infusion, estolate and RV11-RV15 previously hydrolized, unit assumed
S. heidelberg SS 18 = type: cell-based; conditions: Brain Heart Infusion, estolate and RV11-RV15 previously hydrolized, unit assumed
Staph. aureus SS 08 = type: cell-based; conditions: Brain Heart Infusion, estolate and RV11-RV15 previously hydrolized, unit assumed
E. coli SS 06 = type: cell-based; conditions: Brain Heart Infusion, estolate and RV11-RV15 previously hydrolized, unit assumed
E. coli SS 07 = type: cell-based; conditions: Brain Heart Infusion, estolate and RV11-RV15 previously hydrolized, unit assumed
E. coli SS 04 = type: cell-based; conditions: Brain Heart Infusion, estolate and RV11-RV15 previously hydrolized, unit assumed
Pr. mirabilis SS 09 = type: cell-based; conditions: Brain Heart Infusion, estolate and RV11-RV15 previously hydrolized, unit assumed
Staph. albus SS 03 = type: cell-based; conditions: Brain Heart Infusion, estolate and RV11-RV15 previously hydrolized, unit assumed
[7] = in vivo; for Hematic levels in the rat: po, 100 mg/kg
Kl. pneumoniae SS 04 = type: cell-based; conditions: Brain Heart Infusion, estolate and RV11-RV15 previously hydrolized, unit assumed
Excerpt: (§3) In the following table I the MIC/ml values are indicated corresponding to the lowest concentration capable of inducing a complete inhibition of the bacterial development.

H. tubercolosis SS 03 = type: cell-based; conditions: Brain Heart Infusion, estolate and RV11-RV15 previously hydrolized, unit assumed
Excerpt: as §3

C. albicans SS 04 = type: cell-based; conditions: Brain Heart Infusion, estolate and RV11-RV15 previously hydrolized, unit assumed
Acute toxicity = type: in vivo; conditions: mouse, in vivo
Procedure: The acute toxicity was assessed in Swiss white mice by oral and intravenous route. The LD50 values have been calculated by the methods of Probits, starting from the mortality recorded 10 days after the treatment.

B. anthranis SS 08 = type: cell-based; conditions: Brain Heart Infusion, estolate and RV11-RV15 previously hydrolized, unit assumed
Citrobacter SS 09 = type: cell-based; conditions: Brain Heart Infusion, estolate and RV11-RV15 previously hydrolized, unit assumed
[8] = Hematic levels in the healthy volunteer; type: in vivo, healthy volunteers; conditions: oral, 500 mg of erythromycin, average
Excerpt: For the dosing, the microbiological method using a B. subtilis strain was adopted.

B. cereus ATCC 11778 = type: cell-based; conditions: Brain Heart Infusion, estolate and RV11-RV15 previously hydrolized, unit assumed
[9] = Histological examination of bronchi after SO2 inhalation; type: in vivo, Sprague Dawley male rats
Staph. aureus SS 07 [10] = assay: Experimental infection induced by Staph. aureus SS 07; type: in vivo, Swiss white mice; conditions: Staphylococcus aureus, SS07, in Mus musculus, sc, 168 h, read-out: ED50 (reliability limits)
Procedure: as §1, §2

CCC(=O)O[C@H]1[C@H](O[C@@H]2[C@@H](C)[C@H](O[C@H]3C[C@@](C)(OC)[C@@H](O)[C@H](C)O3)[C@@H](C)C(=O)O[C@H](CC)[C@@](C)(O)[C@H](O)[C@@H](C)C(=O)[C@H](C)C[C@@]2(C)O)O[C@H](C)C[C@@H]1N(C)C [RV14, erythromycin-monopropionate-S-carboxymethyl cysteinate]
MIC (Citrobacter SS 05): > 200 µg/mL | Partial obstruction (% incidence) ([1]; oral, 500 mg/kg): 13.33% | Total obstruction, compact plug (% incidence) ([1]; oral, 500 mg/kg): 26.66% | Total obstruction, nodular mass (% incidence) ([1]; oral, 500 mg/kg): 6.66% | Total obstruction, pimply mass (% incidence) ([1]; oral, 500 mg/kg): 6.66% | MIC [2]: 0.8 µg/mL (≈ 1.01 µM) | MIC (E. aerogenes SS 011): 50 µg/mL (≈ 63.3 µM) | MIC (E. coli SS 05): 50 µg/mL (≈ 63.3 µM) | MIC (S. infantis SS 08): 100 µg/mL (≈ 127 µM) | MIC (Sr. marcescens SS 03): 200 µg/mL (≈ 253 µM) | MIC (B. subtilis SS 127): 0.05 µg/mL (≈ 0.0633 µM) | MIC (Pr. vulgaris SS 10): > 200 µg/mL | MIC (Br. melitensis SS 19): 3 µg/mL (≈ 3.8 µM) | MIC (H. influentiae SS 02): 1.5 µg/mL (≈ 1.9 µM) | MIC (Strept. faecalis SS 19): 0.05 µg/mL (≈ 0.0633 µM) | MIC (Ps. aeruginosa SS 10): 100 µg/mL (≈ 127 µM) | MIC (Kl. aerogenes SS 71): 100 µg/mL (≈ 127 µM) | MIC (H. pertussis SS 03): 0.4 µg/mL (≈ 0.506 µM) | MIC (Br. abortus SS 7): 12 µg/mL (≈ 15.2 µM) | MIC (D. pneumoniae SS 23 [3]): 0.05 µg/mL (≈ 0.0633 µM) | MIC (Staph. aureus SS 07 [4]): 0.025 µg/mL (≈ 0.0316 µM) | MIC (C. diphtheriae SS 19): 0.01 µg/mL (≈ 0.0127 µM) | MIC (N. meningitidis SS 04): 0.8 µg/mL (≈ 1.01 µM) | MIC (B. subtilis ATCC 6633): 0.025 µg/mL (≈ 0.0316 µM) | MIC [5]: 1.5 µg/mL (≈ 1.9 µM) | MIC (S. lutea ATCC 9341): 0.01 µg/mL (≈ 0.0127 µM) | MIC (Staph. albus SS 04): 0.05 µg/mL (≈ 0.0633 µM) | MIC (Staph. aureus SS 09): 0.1 µg/mL (≈ 0.127 µM) | MIC (B. anthranis SS 09): 0.8 µg/mL (≈ 1.01 µM) | MIC (Cl. tetani SS 17): 0.2 µg/mL (≈ 0.253 µM) | MIC (N. gonorreae SS 27): 0.8 µg/mL (≈ 1.01 µM) | ED50 (reliability limits) (D. pneumoniae SS 23 [6]; os, D. pneumoniae SS 23, mg/kg of erythromycin, survival after 7 days, 10080 min): 123.74 (148.77-102.92) mg/kg | MIC (E. cloacae SS 07): > 200 µg/mL | MIC (S. heidelberg SS 18): 100 µg/mL (≈ 127 µM) | MIC (Staph. aureus SS 08): 0.05 µg/mL (≈ 0.0633 µM) | MIC (E. coli SS 06): 25 µg/mL (≈ 31.6 µM) | MIC (E. coli SS 07): 50 µg/mL (≈ 63.3 µM) | MIC (E. coli SS 04): 100 µg/mL (≈ 127 µM) | MIC (Pr. mirabilis SS 09): > 200 µg/mL | MIC (Staph. albus SS 03): 0.1 µg/mL (≈ 0.127 µM) | Hematic levels in the rat ([7]; 0.3 h): 0.72 µg/mL | Hematic levels in the rat ([7]; 1 h): 1.85 µg/mL | Hematic levels in the rat ([7]; 2 h): 2.55 µg/mL | Hematic levels in the rat ([7]; 3 h): 1.39 µg/mL | Hematic levels in the rat ([7]; 4 h): 0.65 µg/mL | Hematic levels in the rat ([7]; 5 h): 0.54 µg/mL | Hematic levels in the rat ([7]; 6 h): 0.07 µg/mL | absorption by oral route (in words) ([7]; rat): absorbed by oral route in a rate practically analogous to that of erythromycin estolate | MIC (Kl. pneumoniae SS 04): 100 µg/mL (≈ 127 µM) | MIC (H. tubercolosis SS 03): 50 µg/mL (≈ 63.3 µM) | MIC (C. albicans SS 04): 200 µg/mL (≈ 253 µM) | LD50 (reliability limits) (Acute toxicity; po, 14400 min): 3000 mg·kg | MIC (B. anthranis SS 08): 0.4 µg/mL (≈ 0.506 µM) | MIC (Citrobacter SS 09): > 200 µg/mL | Hematic levels in the healthy volunteer ([8]; 0.30 hours, 18 min): 1.20 µg/mL | Hematic levels in the healthy volunteer ([8]; 1 hour, 60 min): 1.78 µg/mL | Hematic levels in the healthy volunteer ([8]; 2 hours, 120 min): 2.28 µg/mL | Hematic levels in the healthy volunteer ([8]; 3 hours, 180 min): 1.60 µg/mL | Hematic levels in the healthy volunteer ([8]; 4 hours, 240 min): 1.21 µg/mL | MIC (B. cereus ATCC 11778): 0.4 µg/mL (≈ 0.506 µM) | histological appearance of non obstructed bronchi ([9]; oral, 500 mg/kg, free non obstructed): presence of bronchi having almost normal appearance | histological appearance of obstructed bronchial tract ([9]; oral, 500 mg/kg): fully like that of the control animals

CCOC(=O)CCC(=O)O[C@H]1[C@H](O[C@@H]2[C@@H](C)[C@H](O[C@H]3C[C@@](C)(OC)[C@@H](O)[C@H](C)O3)[C@@H](C)C(=O)O[C@H](CC)[C@@](C)(O)[C@H](O)[C@@H](C)C(=O)[C@H](C)C[C@@]2(C)O)O[C@H](C)C[C@@H]1N(C)C [erythromycin ethyl succinate, reference compound]
Partial obstruction (% incidence) ([1]; i.m., 250 mg/kg): 20% | Total obstruction, compact plug (% incidence) ([1]; i.m., 250 mg/kg): 53.33% | Total obstruction, nodular mass (% incidence) ([1]; i.m., 250 mg/kg): 26.66% | Total obstruction, pimply mass (% incidence) ([1]; i.m., 250 mg/kg): 13.33% | ED50 (D. pneumoniae SS 23 [6]; Streptococcus pneumoniae, SS23, in Mus musculus, sc, 168 h, read-out: ED50 (reliability limits)): 54.2 mg/kg | ED50 (Staph. aureus SS 07 [10]): 1.03 mg/kg | bronchial epithelium reaction ([9]; i.m., 250 mg/kg): the bronchial epithelium reacts through a proliferation of cells, mainly cup-shaped cells | histological appearance of obstructed bronchial tract ([9]; i.m., 250 mg/kg): the bronchial obstruction is formed by abundant mucus admixed with fibrin

CC[C@H]1OC(=O)[C@H](C)[C@@H](O[C@H]2C[C@@](C)(OC)[C@@H](O)[C@H](C)O2)[C@H](C)[C@@H](O[C@@H]2O[C@H](C)C[C@H](N(C)C)[C@H]2O)[C@](C)(O)C[C@@H](C)C(=O)[C@H](C)[C@@H](O)[C@]1(C)O [erythromycin hydrochloride, reference compound]
LD50 at 240 h (Acute toxicity; iv, mortality 10 days after treatment, mice, read-out: LD50 (reliability limits)): 377 mg/kg
